Experiment [1] has as its system M. smegmatis 4x03863 Mutant 1. Briefly: microbe, parasite or virus in culture. The format is cell-based. The following applies: Mycolicibacterium smegmatis, read-out: MIC100.
In experiment [2] the test system is M. smegmatis 4x03863 Mutant 4. Briefly: microbe, parasite or virus in culture. The format is cell-based. To be noted: Mycolicibacterium smegmatis, read-out: MIC100.
In experiment [3] the test system is M. smegmatis 4x03863 Mutant 3. Briefly: microbe, parasite or virus in culture. To be noted: Mycolicibacterium smegmatis, read-out: MIC100. The format is cell-based.
The next experiment has as its system M. smegmatis ATCC 19420. Briefly: Antibacterial testing, broth microdilution (CLSI). The format is cell-based, Mycobacterium smegmatis. To be noted: Mycolicibacterium smegmatis. As to the method:
(§1) Antibacterial testing was performed for Acinetobacter baumannii NCTC 13420, E. coli ATCC 25922, M. smegmatis ATCC 19420, Pseudomonas aeruginosa ATCC 27853 and Staphylococcus aureus ATCC 29213, using the broth microdilution method under CLSI guidelines[19] (Table 1). The agar dilution method was additionally performed for M. smegmatis under EUCAST guidelines.[20]
(In general: In broth dilution the organism is exposed to a series of concentrations in liquid medium.)

A further experiment concerns E. coli 2x03863 Mutant. The experiment in a line: microbe, parasite or virus in culture. The format is cell-based. The following applies: Escherichia coli, read-out: MIC100.
The next experiment has as its system E. coli ATCC 25922. Briefly: Antibacterial testing, broth microdilution (CLSI). The format is cell-based. To be noted: Escherichia coli. As to the method: as §1
Experiment [4] concerns the target T1, M. tuberculosis gyrase (Mycobacterium tuberculosis, UniProt P9WG45).
T1 construct: Both the GyrB and GyrBA constructs were altered by deleting the N-terminal 40 amino acids; made in house
The experiment in a line: ATP-independent relaxation of supercoiled DNA. The format is biochemical. To be noted: absence of ATP. The text has this: In the presence of FQs, gyrase can cleave DNA due to the cleavage complex being stabilized.[35]

Experiment [5] addresses T1, M. tuberculosis gyrase. Briefly: biochemical. To be noted: 74 nM of each gyrase subunit, 1% DMSO; read-out: IC50 (apparent), gyrase supercoiling.
In experiment [6] the target is T1, M. tuberculosis gyrase. The experiment in a line: DNA cleavage assay (cleavage complex stabilisation). The format is biochemical. To be noted: 20 nM gyrase, 1% DMSO. As to the method:
Figure S1. […] DNA cleavage assays were carried out as previously described;^11 these are essentially the same as supercoiling assays, except that the reactions are terminated by the addition of SDS and proteinase K, and incubated for a further 30 mins at 37°C. Samples contained 20 nM gyrase and 1% DMSO, except where indicated, and Moxifloxacin, Redx03863 or Redx04739, as indicated. Agarose gels (1%) were run in the presence of 0.5 µg/mL ethidium bromide. – indicates no gyrase; + and all other lanes contain gyrase. nc = nicked circular DNA; l = linear; cc = closed circular.

For experiment [7], the target named is T2, M. tuberculosis GyrBA fusion protein (Mycobacterium tuberculosis, UniProt P9WG45+P9WG47).
T2 construct: Both the GyrB and GyrBA constructs were altered by deleting the N-terminal 40 amino acids; made in house; host or cells: E. coli Rosetta 2 (pLysS)
Briefly: biochemical.

The next experiment relates to A. baumannii NCTC 13420. The experiment in a line: Antibacterial testing, broth microdilution (CLSI). The format is cell-based. To be noted: Acinetobacter baumannii, NCTC13420. As to the method: as §1
Another experiment relates to P. aeruginosa ATCC 27853. The experiment in a line: Antibacterial testing, broth microdilution (CLSI). The format is cell-based. To be noted: Pseudomonas aeruginosa, ATCC27853. Here is the method:
as §1

The subject of a further experiment is S. aureus ATCC 29213. Briefly: Antibacterial testing, broth microdilution (CLSI). The format is cell-based. The following applies: Staphylococcus aureus, ATCC29213. As to the method: as §1
Experiment [8] relates to M. smegmatis 4x03863 Mutant 2 (GyrB Gly83Ser).
Setting [9] is: M. smegmatis ATCC19420 (WT), read-out: MIC100.
The mark [10] stands for this setting: E. coli ATCC25922 (WT), read-out: MIC100.
[11] abbreviates: ATCC19420, M. smegmatis ATCC 19420, broth microdilution, read-out: MIC.
The mark [12] stands for this setting: GyrBA fusion protein at 200 nM, linear pBR322 DNA 20 μg/mL, read-out: apparent IC50, gyrase ATPase activity.
Where [13] appears, read: gyrase 200 nM, IC50 lower than this not determinable, read-out: IC50, gyrase ATPase reaction.
[14] abbreviates: ATCC25922, E. coli ATCC 25922, broth microdilution, read-out: MIC.

Each structure is given as a SMILES string. pIC50: −log10 of the molar value. ≈ marks a conversion by molar mass, not a printed value. Read-outs that look alike come from different tables or passages of the source.

For the molecule `NNC(=O)c1ccncc1` [Isoniazid], the MIC in [1] was found to be 32 µg/mL (≈ 233 µM); in experiment [2], 32 µg/mL (≈ 233 µM); in [3] it was 16 µg/mL (≈ 117 µM); in the experiment on M. smegmatis ATCC 19420 (setting [9]), 32 µg/mL (≈ 233 µM).
Take `COc1c(N2C[C@@H]3CCCN[C@@H]3C2)c(F)cc2c(=O)c(C(=O)O)cn(C3CC3)c12` [Moxifloxacin, reference compound]: the MIC in experiment [1] is less than 0.125 µg/mL; in [2], less than 0.125 µg/mL; in experiment [3], less than 0.125 µg/mL; in the experiment with E. coli 2x03863 Mutant, 0.016 µg/mL (≈ 0.0399 µM); in the experiment with M. smegmatis ATCC 19420 (setting [9]), 0.125 µg/mL (≈ 0.311 µM); in the experiment on E. coli ATCC 25922 (setting [10]), 0.016 µg/mL (≈ 0.0399 µM).
On to `CNc1cc(F)cc2c1[nH]c1nc(Oc3cnc(C)nc3)nc(N3C[C@@H]4[C@@H](N)[C@@H]4C3)c12` [Redx03863], for which the MIC in experiment [1] came to 0.25 µg/mL (≈ 0.595 µM); in experiment [2], 0.25 µg/mL (≈ 0.595 µM); in [3] it was 0.125 µg/mL (≈ 0.297 µM); in the experiment on E. coli 2x03863 Mutant, 32 µg/mL (≈ 76.1 µM); in the experiment on M. smegmatis ATCC 19420 (setting [11]) it was 0.016 µg/mL (≈ 0.0381 µM); with M. smegmatis ATCC 19420 (setting [9]), 0.016 µg/mL (≈ 0.0381 µM). The MIC in the experiment with A. baumannii NCTC 13420 was determined as 0.031 µg/mL (≈ 0.0737 µM); with P. aeruginosa ATCC 27853 it was 4 µg/mL (≈ 9.51 µM); in the experiment on S. aureus ATCC 29213 it was 0.125 µg/mL (≈ 0.297 µM); with E. coli ATCC 25922 (setting [14]), 0.016 µg/mL (≈ 0.0381 µM); with E. coli ATCC 25922 (setting [10]), 0.016 µg/mL (≈ 0.0381 µM). Also, the “inhibition of relaxation of supercoiled DNA” value against M. tuberculosis gyrase [4] is “did not inhibit”. For the same molecule, the pIC50 (in general, −log10 of the IC50, conventionally taken in molar units) at M. tuberculosis gyrase [5] is 8.05; in experiment [7] (setting [12]) it was 6.77; in [7] (setting [13]) it was approximately 6.70. The “stabilization of the cleavage complex” value on M. tuberculosis gyrase [6] was “did not stabilize the cleavage complex”. Moreover, in experiment [8], the “increase in resistance of mutant strain” value is reported as 16 fold.
`CNc1cc(F)cc2c1[nH]c1nc(CNC(=O)c3cnco3)nc(N3CCC(N)C3)c12` (centres unmarked) [Redx04739]: the MIC in [1] is 4 µg/mL (≈ 9.42 µM); in experiment [2], 2 µg/mL (≈ 4.71 µM); in [3] it was 4 µg/mL (≈ 9.42 µM); in the experiment with E. coli 2x03863 Mutant, more than 64 µg/mL; in the experiment on M. smegmatis ATCC 19420 (setting [11]) it was 0.25 µg/mL (≈ 0.589 µM); with M. smegmatis ATCC 19420 (setting [9]), 0.5 µg/mL (≈ 1.18 µM). For the same molecule, the MIC in the experiment with A. baumannii NCTC 13420 amounted to 64 µg/mL (≈ 151 µM); with P. aeruginosa ATCC 27853 it was 32 µg/mL (≈ 75.4 µM); against S. aureus ATCC 29213 it was 8 µg/mL (≈ 18.8 µM); in the experiment on E. coli ATCC 25922 (setting [14]), 8 µg/mL (≈ 18.8 µM); in the experiment with E. coli ATCC 25922 (setting [10]) it was 8 µg/mL (≈ 18.8 µM). Also, the “inhibition of relaxation of supercoiled DNA” value on M. tuberculosis gyrase [4] is “did not inhibit”. For the same molecule, the pIC50 at M. tuberculosis gyrase [5] was 7.52; in experiment [7] (setting [12]), 6.68; in [7] (setting [13]), approximately 6.70. In addition, the “stabilization of the cleavage complex” value at M. tuberculosis gyrase [6] is “did not stabilize the cleavage complex”. Moreover, the “increase in resistance of mutant strain” value in experiment [8] is reported as 8 fold.
For `CO[C@@H]1[C@@H](OC(N)=O)[C@@H](O)[C@H](Oc2ccc3c(O)c(NC(=O)c4ccc(O)c(CC=C(C)C)c4)c(=O)oc3c2C)OC1(C)C` [novobiocin, reference compound], the MIC in experiment [1] is 4 µg/mL (≈ 6.53 µM); in experiment [2], 4 µg/mL (≈ 6.53 µM); in [3] it was 8 µg/mL (≈ 13.1 µM); in the experiment on E. coli 2x03863 Mutant it was 0.5 µg/mL (≈ 0.816 µM); in the experiment on M. smegmatis ATCC 19420 (setting [9]), 2 µg/mL (≈ 3.26 µM); in the experiment with E. coli ATCC 25922 (setting [10]) it was 64 µg/mL (≈ 104 µM).

Source of the values: article PMC7556816, “Structural and mechanistic analysis of ATPase inhibitors targeting mycobacterial DNA gyrase” (Journal of Antimicrobial Chemotherapy, 2020).
